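1) Cells in 96-well plates. 2) Compound, 48 h, 5 concentrations. 3) Linear interpolation between surrounding doses. 4) Unreached endpoint = highest concentration. Abbreviation: GI50, concentration required for 50% inhibition of growth.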 Activity calls are given as the source filed them. Rule as the data show it: active = GI50 up to about 1.1 µM and inactive = higher.
Assays:
Test in all cases: inhibition of tumour cell growth, NCI panel, 48 h
[1] = test system: 786-0
[2] = test system: A498
[3] = test system: A549
[4] = test system: ACHN
[5] = test system: BT-549
[6] = test system: CAKI-1
[7] = test system: CCRF-CEM
[8] = test system: COLO 205
[9] = test system: DU-145
[10] = test system: EKVX
[11] = test system: HCT-116
[12] = test system: HCT-15
[13] = test system: HL-60
[14] = test system: HOP-62
[15] = test system: HT-29
[16] = test system: K562
[17] = test system: KM12
[18] = test system: LOX IMVI
[19] = test system: M14
[20] = test system: MCF7
[21] = test system: MDA-MB-231
[22] = test system: MDA-MB-435
[23] = test system: MDA-N
[24] = test system: MOLT-4
[25] = test system: Malme-3M
[26] = test system: NCI-H226
[27] = test system: NCI-H23
[28] = test system: NCI-H460
[29] = test system: NCI/ADR-RES
[30] = test system: OVCAR-3
[31] = test system: OVCAR-4
[32] = test system: OVCAR-5
[33] = test system: OVCAR-8
[34] = test system: PC-3
[35] = test system: RPMI-8226
[36] = test system: RXF 393
[37] = test system: SF-268
[38] = test system: SF-295
[39] = test system: SF-539
[40] = test system: SK-MEL-28
[41] = test system: SK-MEL-2
[42] = test system: SK-MEL-5
[43] = test system: SK-OV-3
[44] = test system: SN12C
[45] = test system: SNB-19
[46] = test system: SNB-75
[47] = test system: SW-620
[48] = test system: T47D
[49] = test system: TK-10
[50] = test system: UACC-62
[51] = test system: UO-31

Which results are given for `COC(=O)c1cc(NC(=O)c2cc(NC(=O)Cc3c[nH]c4ccccc34)cn2C)cn1C`?
GI50 [1]: 56.9 µM (inactive); GI50 [2]: 24 µM (inactive); GI50 [3]: 29.4 µM (inactive); GI50 [4]: 35.7 µM (inactive); GI50 [5]: 37.3 µM (inactive); GI50 [6]: 57.1 µM (inactive); GI50 [7]: 32.7 µM (inactive); GI50 [8]: 24.2 µM (inactive); GI50 [9]: > 100 µM (inactive); GI50 [10]: 22.2 µM (inactive); GI50 [11]: 27.2 µM (inactive); GI50 [12]: 42.8 µM; GI50 [13]: 34.6 µM (inactive); GI50 [14]: > 100 µM (inactive); GI50 [15]: 22.2 µM (inactive); GI50 [16]: 44.4 µM (inactive); GI50 [17]: 24.3 µM (inactive); GI50 [18]: 32 µM (inactive); GI50 [19]: 33 µM (inactive); GI50 [20]: 36.5 µM (inactive); GI50 [21]: 25.9 µM (inactive); GI50 [22]: 30.3 µM (inactive); GI50 [23]: 37.2 µM (inactive); GI50 [24]: 30.7 µM (inactive); GI50 [25]: 21.1 µM (inactive); GI50 [26]: 30.8 µM (inactive); GI50 [27]: 24.3 µM (inactive); GI50 [28]: 30.5 µM (inactive); GI50 [29]: > 100 µM (inactive); GI50 [30]: 41.9 µM (inactive); GI50 [31]: 43.1 µM (inactive); GI50 [32]: 39.3 µM (inactive); GI50 [33]: 39.4 µM (inactive); GI50 [34]: 19.1 µM (inactive); GI50 [35]: 20.5 µM (inactive); GI50 [36]: 31.3 µM (inactive); GI50 [37]: 42.6 µM (inactive); GI50 [38]: 36.3 µM (inactive); GI50 [39]: 56.4 µM (inactive); GI50 [40]: 35.9 µM (inactive); GI50 [41]: 19.6 µM (inactive); GI50 [42]: 16 µM (inactive); GI50 [43]: 40 µM (inactive); GI50 [44]: 33.4 µM (inactive); GI50 [45]: 21.8 µM (inactive); GI50 [46]: 20.5 µM (inactive); GI50 [47]: 57.1 µM (inactive); GI50 [48]: > 100 µM (inactive); GI50 [49]: 31.5 µM (inactive); GI50 [50]: 20.2 µM (inactive); GI50 [51]: 23.5 µM (inactive)

— ChEMBL document CHEMBL1201862, “PubChem BioAssay data set” (2004)
